Laboratory results published in article PMC5651845, “A New Generation of Arachidonic Acid Analogues as Potential Neurological Agent Targeting Cytosolic Phospholipase A2” (Scientific Reports, 2017).

Columns and labels:
[1] = biological target: T1, recombinant cPLA2 (Homo sapiens, UniProt P47712); test: EnzChek phospholipase A2 fluorogenic assay (IC50); assay type: biochemical
T1 construct: purchased US Biological P4074-03R
T1 sequence (P47712 1-749): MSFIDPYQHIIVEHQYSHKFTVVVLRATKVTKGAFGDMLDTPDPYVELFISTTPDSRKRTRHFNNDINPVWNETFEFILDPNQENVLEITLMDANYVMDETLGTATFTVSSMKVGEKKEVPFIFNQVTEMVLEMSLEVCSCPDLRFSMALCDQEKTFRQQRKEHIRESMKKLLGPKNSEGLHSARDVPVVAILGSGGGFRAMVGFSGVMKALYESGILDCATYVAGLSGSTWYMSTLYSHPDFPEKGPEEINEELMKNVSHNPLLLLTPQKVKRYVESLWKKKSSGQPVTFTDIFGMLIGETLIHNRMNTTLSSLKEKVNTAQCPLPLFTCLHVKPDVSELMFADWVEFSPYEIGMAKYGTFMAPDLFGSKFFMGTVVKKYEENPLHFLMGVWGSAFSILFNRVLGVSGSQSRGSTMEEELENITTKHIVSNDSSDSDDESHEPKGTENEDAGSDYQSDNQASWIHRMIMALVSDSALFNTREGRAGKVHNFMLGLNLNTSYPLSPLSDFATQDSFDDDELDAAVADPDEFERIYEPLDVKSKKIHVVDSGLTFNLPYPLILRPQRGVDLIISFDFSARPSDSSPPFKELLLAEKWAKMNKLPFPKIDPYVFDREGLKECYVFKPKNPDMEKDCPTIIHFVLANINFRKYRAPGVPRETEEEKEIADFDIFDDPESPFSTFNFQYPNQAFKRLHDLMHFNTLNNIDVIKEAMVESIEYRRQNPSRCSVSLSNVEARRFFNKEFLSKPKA
Procedure: The assay was conducted as described above. Instead of adding a fixed concentration of the test compound, various concentrations of compound were reconstituted in DMSO. 48 μL of 1X phospholipase A2 reaction buffer were added into each well of a 96-wells plate. This was followed by addition of 1 μL of recombinant cPLA2 (P4074-03R, US Biological) and 1 μL of the respective concentration of the test compound dissolved in DMSO. The reaction was initiated by adding 50 μL of the substrate solution and incubating at room temperature for 1 h. Fluorescence was measured using a Varioskan plate reader by exciting at 485 nm, while fluorescence emission was detected at 515 nm. Positive control was performed when 1 μL of test compound was replaced by vehicle DMSO. IC50 was expressed as the mean value of duplicate wells from three experiments.

[2] = biological target: T1, recombinant cPLA2; test: EnzChek phospholipase A2 fluorogenic assay (% activity) at 10 μM; assay type: biochemical; settings: 10 μM compound; for remaining activity at 10 µM: 1 h, room temperature
Procedure: The compounds were evaluated with a fluorogenic PLA2 assay kit (EnzChek® Phospholipase A2 Assay Kit, Catalog No: E10217) at a standard 10 μM concentration. Potential inhibitors were determined by their ability to lower cPLA2 activity to a greater extent than 1a.
The assay was conducted according to the manufacturer’s instruction (E10217, Molecular Probes) with slight modification. Briefly, substrate solution was separately prepared by mixing 5 μL of DOPG, 5 μL of DOPC and 5 μL of substrate respectively in 1.5 mL of 1X phospholipase A2 reaction buffer. The mixture was vortexed vigorously for 3 min before allowing to stand at room temperature for 1 h. 48 μL of 1X phospholipase A2 reaction buffer were added into each well of a 96-wells plate. This was followed by addition of 1 μL of recombinant cPLA2 (P4074-03R, US Biological) and 1 μL of 1 mM of the respective compound dissolved in DMSO. The final concentration of the test compound achieved is 10 μM. The reaction was initiated by adding 50 μL of the substrate solution and incubating at room temperature for 1 h. Fluorescence was measured using a Varioskan plate reader (Thermo Scientific, MA, USA) by exciting at 485 nm, while fluorescence emission was detected at 515 nm. Positive control was performed when 1 μL of test compound was replaced by vehicle DMSO. % activity was expressed as the mean value of duplicate wells from three experiments. % activity was calculated by the following formula1 %activity=fluorescenceoftestedwell−background/fluorescenceofpostivecontrol−background

[3] = tested on: HEK293T cells; test: MTS cell proliferation assay on HEK293T cells; assay type: cell-based, human; settings: 10 μM, 48 h and 72 h, vs vehicle control
Procedure: (§1) To explore whether the inhibitors are cytotoxic, MTS assay were conducted on BV-2 cells, a murine microglial cell line derived from post-natal mouse cerebella, and HEK293T cells that are derived from human embryonic kidney. Both cell types were treated with 10 μM of 1a, 2g and 2i for 48 h and 72 h (Fig. 3A,B). Dimethyl sulfoxide (DMSO) vehicle control was also included as the compounds were dissolved in DMSO.
(§2) Cells were plated on a 96-wells plate and grown for 24 h to a density of 8000 cells per well for both HEK293T and BV-2 cells. Cells were cultured at 37 °C under a 5% CO2 environment in 100 μL of culture medium. Thereafter, the compound of interest dissolved in culture medium at a concentration of 10 μM was replaced into each well. DMSO was added as vehicle in the control group. 3 biological replicates were performed. The plates were then incubated at 37 °C with 5% CO2 for 48 h and 72 h. At each individual time point, 20 μL of CellTiter 96® AQueous One Solution (MTS reagent) was added into each well and re-incubated at 37 °C with 5% CO2 without light for 3 h. Colorimetric readings were taken using a Varioskan plate reader at 490 nm and analyzed. Three independent biological repeats with four technical replicates were performed.

[4] = tested on: BV-2 cells; test: MTS cell proliferation assay on BV-2 cells; assay type: cell-based, murine; settings: 10 μM, 48 h and 72 h, vs vehicle control
Procedure: as §1, §2

[5] = PAMPA with porcine brain lipids (BBB permeation); settings: for order of Pe values of reference compounds: similar conditions
Procedure: Thus to explore whether 2i is able to penetrate into the brain, we used PAMPA with porcine brain lipids as the lipid barrier. […] A minimum Pe of […] × 10^−6 cm/s has been cited as the threshold for permeability across the blood brain barrier.
The Parallel Artificial Membrane Permeability Assay (PAMPA) was used to determine the effective permeability (Pe) of 2i. The method reported by Di et al.[53] was followed with modifications. Determinations were carried out on MultiScreen-IP PAMPA assay (donor) plates (MAIPNTR10) and MultiScreen Receiver Plates (MATRNPS50) from Millipore Corporation (USA) with porcine polar brain lipids (Avanti Polar Lipids Inc, Alabaster, AL) as the lipid barrier.
An aliquot (5 µL) of 2% porcine brain lipids in dodecane (ReagentPlus®, Sigma Aldrich, USA) was dispensed into the donor well. A stock solution (5 mM) of 2i prepared in DMSO was diluted with 1x phosphate buffer (PBS, pH 7.4) to give a 50 µM solution. An aliquot (300 µL) of the solution was dispensed into the donor well and an equal volume of buffer (1xPBS with 1% DMSO) was added to the corresponding acceptor well. The donor and acceptor plates were assembled, the unit was placed in a humidified box and gently agitated on a mini shaker at room temperature (25 °C) for 16 h. After this time, aliquots (200 µL) were withdrawn from the donor and acceptor wells, diluted separately to 1 mL with PBS, and quantified at λmax of 290 nm on a Shimadzu UV-1800 Spectrophotometer.
300 µL aliquots of stock solutions (500 µM, 1xPBS, 0.1% DMSO) were dispensed to donor wells as described earlier. Quantification was by UV at λmax of 272 nm (caffeine), 284 nm (carbamazepine), 330 nm (quinidine), 280 nm (dopamine) and 288 nm (propanolol). […] Pe was obtained from (3):3 Pe=−2.303×{VAVD/[(VA+VD)×A×t]}×log{1−[(VA+VD)/(VD.S)]×CA(t)/CD(0)} where VA and VD are the volumes of acceptor (cm^3) and donor (cm^3) wells respectively, A is the area of the surface area of the membrane (0.24 cm^2), t is the permeation time (s). The Pe of each compound was obtained from at least 3 separate experiments using 2 different stock solutions. For each independent determination, triplicates (3 wells) were run for each compound.

[6] = biological target: T2, sPLA2, human recombinant type V (Homo sapiens, UniProt P39877); test: EnzChek phospholipase A2 fluorogenic assay (selectivity) with sPLA2; assay type: biochemical; settings: 10 μM
T2 construct: purchased Cayman Chemical 10009563
T2 sequence (P39877 21-138): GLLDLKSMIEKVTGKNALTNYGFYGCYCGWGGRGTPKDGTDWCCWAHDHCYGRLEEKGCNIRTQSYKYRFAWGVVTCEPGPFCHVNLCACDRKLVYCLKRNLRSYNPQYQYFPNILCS
Procedure: To further explore their selectivity towards cPLA2, 10 μM of 2g and 2i were evaluated for their inhibition against recombinant sPLA2 using the fluorogenic PLA2 assay (Fig. 3C).
The assay was conducted as described above. Instead of adding cPLA2, it was replaced by sPLA2. 48 μL of 1X phospholipase A2 reaction buffer was added into each well of a 96-wells plate. This was followed by addition of 1 μL of sPLA2, human recombinant type V (10009563, Cayman Chemical) and 1 μL of 1 mM of the respective compound or thioetheramide-PC (62750, Cayman Chemical) dissolved in DMSO. The final concentration of the test compound achieved is 10 μM. The reaction was initiated by adding 50 μL of the substrate solution and incubating at room temperature for 1 h. Fluorescence was measured using a Varioskan plate reader by exciting at 485 nm, while fluorescence emission was detected at 515 nm. Positive control was performed when 1 μL of test compound was replaced by vehicle DMSO. % activity was expressed as the mean value of duplicate wells from four experiments. % activity was calculated by the following formula:2 %activity=fluorescenceoftestedwell−background/fluorescenceofpostivecontrol−background

[7] = biological target: T2, sPLA2, human recombinant type V; parameters: method as in PMID 2303420; settings: cited from earlier work

CCCCC/C=C\C/C=C\C/C=C\C/C=C\CCCC(=O)C(F)(F)F [1a, arachidonyl trifluoromethyl ketone, reference compound]
IC50 [1]: 16.5 ± 3 µM | inhibition at 10 µM [2]: 60% | remaining activity at 10 µM [2]: 40 ± 0.9% | cytotoxicity (MTS) on HEK293T cells [3]: no statistical differences in cell survival | cytotoxicity (MTS) on BV-2 cells [4]: no statistical differences in cell survival

NC(=O)N1c2ccccc2C=Cc2ccccc21 [carbamazepine]
order of Pe values of reference compounds [5]: propranolol > carbamazepine > quinidine > caffeine > dopamine

CCCCC/C=C\C/C=C\C/C=C\C/C=C\CCCCC(=O)NCCCCC(=O)O [2g]
IC50 [1]: 5.3 ± 0.3 µM | fold stronger cPLA2 inhibition than 1a (from IC50) ([1]; relative to 1a): 3 fold | inhibition at 10 µM [2]: 84.5% | remaining activity at 10 µM [2]: 15.5 ± 0.3% | sPLA2 activity ([6]; relative to DMSO control): 184% | cytotoxicity (MTS) on HEK293T cells [3]: no significant toxic effects | cytotoxicity (MTS) on BV-2 cells [4]: no significant toxic effects

Cn1c(=O)c2c(ncn2C)n(C)c1=O [caffeine]
order of Pe values of reference compounds [5]: propranolol > carbamazepine > quinidine > caffeine > dopamine

CC(C)NCC(O)COc1cccc2ccccc12 (centres unmarked) [propranolol]
order of Pe values of reference compounds [5]: propranolol > carbamazepine > quinidine > caffeine > dopamine

NCCc1ccc(O)c(O)c1 [dopamine]
order of Pe values of reference compounds [5]: propranolol > carbamazepine > quinidine > caffeine > dopamine

CCCCCCCCCCCCCCCCSC[C@H](COP(=O)(O)OCC[N+](C)(C)C)NC(=O)CCCCCCCCCCCCCCC [Thioetheramide-PC, reference compound]
reduction of sPLA2 activity [6]: 62% | IC50 [7]: 2 µM

C=C[C@H]1C[N@@]2CC[C@H]1C[C@@H]2[C@@H](O)c1ccnc2ccc(OC)cc12 [quinidine]
order of Pe values of reference compounds [5]: propranolol > carbamazepine > quinidine > caffeine > dopamine

O=C1NC(=O)/C(=C/c2ccc(C(=O)NC[C@@H]3C[C@@H](SC(c4ccccc4)(c4ccccc4)c4ccccc4)CN3C(=O)c3ccccc3C(=O)c3ccc(F)cc3F)cc2)S1 [pyrrophenone]
effective permeability (Pe) ([5]; porcine brain lipids, 16 h, 25 °C): 2.00 ± 0.05 × 10^−6 cm/s
